29 compounds from patent publication US10988459B2 (priority 2015, dated 2021) can be followed below.

pKi: −log10 of the molar value.

The target of the assay is human RIP1 kinase domain (2-375) (Homo sapiens (Human), UniProt Q13546). Briefly: biochemical. The settings on record: human RIP1 kinase domain (2-375), 50 uM ATP, 2 hours incubation, Transcreener ADP assay; read-out: RIP1 Ki. The format is biochemical. Put shortly: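 Ki^app comes from Morrison tight-binding fits of fractional activity versus compound concentration. Activity was read as ADP production, via tracer displacement lowering fluorescence polarization (633 nm laser). Conditions: 2 h, 50 nM insect-cell-expressed enzyme, 50 uM ATP, 30 mM MgCl2, 1 mM DTT, 0.5% DMSO, pH 7.5 Hepes.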
Sequence of human RIP1 kinase domain (2-375) (Q13546 2-375): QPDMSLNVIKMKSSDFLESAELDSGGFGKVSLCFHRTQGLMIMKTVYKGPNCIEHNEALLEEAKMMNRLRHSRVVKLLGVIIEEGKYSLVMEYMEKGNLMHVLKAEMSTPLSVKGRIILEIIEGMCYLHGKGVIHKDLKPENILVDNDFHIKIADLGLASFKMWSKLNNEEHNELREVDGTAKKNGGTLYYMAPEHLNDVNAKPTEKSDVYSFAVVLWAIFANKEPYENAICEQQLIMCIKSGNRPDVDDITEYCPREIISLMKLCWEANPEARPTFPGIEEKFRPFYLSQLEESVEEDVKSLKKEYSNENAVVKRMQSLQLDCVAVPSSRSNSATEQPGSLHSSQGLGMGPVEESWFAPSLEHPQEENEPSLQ
What is called pKi is −log10 of the Ki, conventionally taken in molar units. Take `Cc1cc2n(n1)CC[C@H](NC(=O)c1ncn(CC3CCCCC3)n1)C(=O)N2C` [Example 163, (S)-1-(cyclohexylmethyl)-N-(2,4-dimethyl-5-oxo-5,6,7,8-tetrahydro-4H-pyrazolo[1,5-a][1,3]diazepin-6-yl)-1H-1,2,4-triazole-3-carboxamide]: the pKi is 7.65.

As for `Cc1cc2n(n1)CC[C@H](NC(=O)c1ncn(Cc3ccc(F)cc3)n1)C(=O)N2C` [Example 164, (S)-N-(2,4-dimethyl-5-oxo-5,6,7,8-tetrahydro-4H-pyrazolo[1,5-a][1,3]diazepin-6-yl)-1-(4-fluorobenzyl)-1H-1,2,4-triazole-3-carboxamide], the pKi was 7.61.

As to `Cc1cc2n(n1)CC[C@H](NC(=O)c1ncn([C@@H](C)c3ccccc3)n1)C(=O)N2C` [Example 165, N-((S)-2,4-dimethyl-5-oxo-5,6,7,8-tetrahydro-4H-pyrazolo[1,5-a][1,3]diazepin-6-yl)-1-((S)-1-phenylethyl)-1H-1,2,4-triazole-3-carboxamide], the pKi was 7.32.

For the compound `Cc1cnn2c1N(C)C(=O)[C@@H](NC(=O)c1ncn(Cc3ccccc3)n1)CC2` [Example 166, (S)-1-benzyl-N-(3,4-dimethyl-5-oxo-5,6,7,8-tetrahydro-4H-pyrazolo[1,5-a][1,3]diazepin-6-yl)-1H-1,2,4-triazole-3-carboxamide], the pKi is 7.70.

Take `CN1C(=O)[C@@H](NC(=O)c2cc3c(cn2)CO[C@@]3(C)CC(F)(F)F)COc2ccccc21` [Example 168, (S)-1-methyl-N-((S)-5-methyl-4-oxo-2,3,4,5-tetrahydrobenzo[b][1,4]oxazepin-3-yl)-1-(2,2,2-trifluoroethyl)-1,3-dihydrofuro[3,4-c]pyridine-6-carboxamide]: the pKi is 6.57.

As for `CN1C(=O)[C@@H](NC(=O)c2cc3c(cn2)CO[C@]32CCOC2)COc2ccccc21` [Example 169, (R)-N-((S)-5-methyl-4-oxo-2,3,4,5-tetrahydrobenzo[b][1,4]oxazepin-3-yl)-4,5-dihydro-2H,3′H-spiro[furan-3,1′-furo[3,4-c]pyridine]-6′-carboxamide], the pKi was 7.71.

Consider `Cc1cc2n(n1)CC[C@H](NC(=O)c1ncn(Cc3ccc(Cl)cc3)n1)C(=O)N2C` [Example 170, (S)-1-(4-chlorobenzyl)-N-(2,4-dimethyl-5-oxo-5,6,7,8-tetrahydro-4H-pyrazolo[1,5-a][1,3]diazepin-6-yl)-1H-1,2,4-triazole-3-carboxamide], for which the pKi is 7.88.

Regarding `CN1C(=O)[C@@H](NC(=O)c2ncn(Cc3ccccc3)n2)CCn2nc(C3CC3)cc21` [Example 171, (S)-1-benzyl-N-(2-cyclopropyl-4-methyl-5-oxo-5,6,7,8-tetrahydro-4H-pyrazolo[1,5-a][1,3]diazepin-6-yl)-1H-1,2,4-triazole-3-carboxamide], the pKi is 7.79.

For `Cc1cc2n(n1)CC[C@H](NC(=O)c1ncn(Cc3ccccc3)n1)C(=O)N2C` [Example 172, (S)-1-benzyl-N-(2,4-dimethyl-5-oxo-5,6,7,8-tetrahydro-4H-pyrazolo[1,5-a][1,3]diazepin-6-yl)-1H-1,2,4-triazole-3-carboxamide], the pKi was 7.64.

`CC(C)C1CCc2cnc(C(=O)N[C@H]3COc4ccccc4N(C)C3=O)n2C1` (stereo partly drawn) [Example 173, 6-isopropyl-N—((S)-5-methyl-4-oxo-2,3,4,5-tetrahydrobenzo[b][1,4]oxazepin-3-yl)-5,6,7,8-tetrahydroimidazo[1,5-a]pyridine-3-carboxamide]: the pKi is 7.41.

For the compound `CN1C(=O)[C@@H](NC(=O)c2n[nH]c3c2CC2(CC3)CC2)COc2ccccc21` [Example 174, (S)—N-(5-methyl-4-oxo-2,3,4,5-tetrahydrobenzo[b][1,4]oxazepin-3-yl)-1′,4′,6′,7′-tetrahydrospiro[cyclopropane-1,5′-indazole]-3′-carboxamide], the pKi is 6.78.

In the case of `CN1C(=O)C(NC(=O)c2nnc(Cc3ccccc3)[nH]2)CCn2ccnc21` (centres unmarked) [Example 175, 5-benzyl-N-(9-methyl-8-oxo-6,7,8,9-tetrahydro-5H-imidazo[1,2-a][1,3]diazepin-7-yl)-4H-1,2,4-triazole-3-carboxamide], the negative-log Ki (pKi) was 6.67.

For `CN1C(=O)C(NC(=O)c2n[nH]c3c2C[C@@H](C(F)(F)F)CC3)CCn2ccnc21` (stereo partly drawn) [Example 176, (5S)—N-(9-methyl-8-oxo-6,7,8,9-tetrahydro-5H-imidazo[1,2-a][1,3]diazepin-7-yl)-5-(trifluoromethyl)-4,5,6,7-tetrahydro-1H-indazole-3-carboxamide], the pKi is 5.85.

For the compound `CN1C(=O)C(NC(=O)c2ccn(Cc3ccc(F)c(F)c3)n2)CCn2ccnc21` (centres unmarked) [Example 177, 1-(3,4-difluorobenzyl)-N-(9-methyl-8-oxo-6,7,8,9-tetrahydro-5H-imidazo[1,2-a][1,3]diazepin-7-yl)-1H-pyrazole-3-carboxamide], the pKi was 5.72.

On to `CN1C(=O)C(NC(=O)c2cn(Cc3ccc(F)c(F)c3)cn2)CCn2ccnc21` (centres unmarked) [Example 178, 1-(3,4-difluorobenzyl)-N-(9-methyl-8-oxo-6,7,8,9-tetrahydro-5H-imidazo[1,2-a][1,3]diazepin-7-yl)-1H-imidazole-4-carboxamide], for which the pKi was 6.32.

As for `CC(C)n1ncc2c1OC[C@H](NC(=O)c1nnc(Cc3ccccc3)[nH]1)C(=O)N2C` [Example 179, (S)-5-benzyl-N-(1-isopropyl-4-methyl-5-oxo-4,5,6,7-tetrahydro-1H-pyrazolo[3,4-b][1,4]oxazepin-6-yl)-4H-1,2,4-triazole-3-carboxamide], the pKi was 6.60.

Turning to `CC(C)n1ncc2c1OC[C@H](NC(=O)c1cn(Cc3ccc(F)c(F)c3)cn1)C(=O)N2C` [Example 180, (S)-1-(3,4-difluorobenzyl)-N-(1-isopropyl-4-methyl-5-oxo-4,5,6,7-tetrahydro-1H-pyrazolo[3,4-b][1,4]oxazepin-6-yl)-1H-imidazole-4-carboxamide], the pKi was 5.07.

Take `CN1C(=O)[C@@H](NC(=O)c2nnc(Cc3ccccc3)[nH]2)COc2c1cnn2C` [Example 181, (S)-5-benzyl-N-(1,4-dimethyl-5-oxo-4,5,6,7-tetrahydro-1H-pyrazolo[3,4-b][1,4]oxazepin-6-yl)-4H-1,2,4-triazole-3-carboxamide]: the pKi was 7.03.

Take `CN1C(=O)[C@@H](NC(=O)c2ccn(Cc3ccc(F)c(F)c3)n2)COc2c1cnn2C` [Example 182, (S)-1-(3,4-difluorobenzyl)-N-(1,4-dimethyl-5-oxo-4,5,6,7-tetrahydro-1H-pyrazolo[3,4-b][1,4]oxazepin-6-yl)-1H-pyrazole-3-carboxamide]: the pKi was 5.64.

As for `CN1C(=O)[C@@H](NC(=O)c2cn(Cc3ccc(F)c(F)c3)cn2)COc2c1cnn2C` [Example 183, (S)-1-(3,4-difluorobenzyl)-N-(1,4-dimethyl-5-oxo-4,5,6,7-tetrahydro-1H-pyrazolo[3,4-b][1,4]oxazepin-6-yl)-1H-imidazole-4-carboxamide], the pKi is 5.80.

As for `CCC1Cc2c(C(=O)N[C@H]3COc4ccccc4N(C)C3=O)n[nH]c2CO1` (stereo partly drawn) [Example 186, 5-ethyl-N—((S)-5-methyl-4-oxo-2,3,4,5-tetrahydrobenzo[b][1,4]oxazepin-3-yl)-1,4,5,7-tetrahydropyrano[3,4-c]pyrazole-3-carboxamide], the pKi was 6.87.

On to `CC1CCn2nnc(C(=O)N[C@H]3COc4ccccc4N(C)C3=O)c2C1` (stereo partly drawn) [Example 187, 5-methyl-N—((S)-5-methyl-4-oxo-2,3,4,5-tetrahydrobenzo[b][1,4]oxazepin-3-yl)-4,5,6,7-tetrahydro-[1,2,3]triazolo[1,5-a]pyridine-3-carboxamide], for which the pKi was 6.68.

As for `CN1C(=O)[C@@H](NC(=O)c2n[nH]c3c2C[C@@H](C(F)(F)F)CC3)COc2c1cnn2C` [Example 188, (S)—N—((S)-1,4-dimethyl-5-oxo-4,5,6,7-tetrahydro-1H-pyrazolo[3,4-b][1,4]oxazepin-6-yl)-5-(trifluoromethyl)-4,5,6,7-tetrahydro-1H-indazole-3-carboxamide], the pKi is 5.35.

As for `CN1C(=O)[C@@H](NC(=O)c2n[nH]c3c2CC2(CC3)CC2(F)F)COc2ccccc21` (stereo partly drawn) [Example 189, 2,2-difluoro-N—((S)-5-methyl-4-oxo-2,3,4,5-tetrahydrobenzo[b][1,4]oxazepin-3-yl)-1′,4′,6′,7′-tetrahydrospiro[cyclopropane-1,5′-indazole]-3′-carboxamide], the pKi is 6.59.

With `CC1CCn2cnc(C(=O)N[C@H]3COc4ccccc4N(C)C3=O)c2C1` (some centres unmarked) [Example 190], the pKi was 6.58.

As for `CN1C(=O)[C@@H](NC(=O)c2nnn3ccc(C(F)(F)F)cc23)COc2ccccc21` [Example 191, (S)—N-(5-methyl-4-oxo-2,3,4,5-tetrahydrobenzo[b][1,4]oxazepin-3-yl)-5-(trifluoromethyl)-[1,2,3]triazolo[1,5-a]pyridine-3-carboxamide], the negative logarithm of the Ki (pKi) was 7.66.

With `CN1C(=O)[C@@H](NC(=O)c2nnn3c2CC(C(F)(F)F)CC3)COc2ccccc21` (stereo partly drawn) [Example 192, N—((S)-5-methyl-4-oxo-2,3,4,5-tetrahydrobenzo[b][1,4]oxazepin-3-yl)-5-(trifluoromethyl)-4,5,6,7-tetrahydro-[1,2,3]triazolo[1,5-a]pyridine-3-carboxamide], the pKi was 6.98.

With `CN1C(=O)[C@@H](NC(=O)c2ncn3ccc(C(F)(F)F)nc23)COc2ccccc21` [Example 193, (S)—N-(5-methyl-4-oxo-2,3,4,5-tetrahydrobenzo[b][1,4]oxazepin-3-yl)-2-(trifluoromethyl)imidazo[1,5-a]pyrimidine-8-carboxamide], the pKi was 7.24.

Regarding `CCC1(C)Cc2c(C(=O)N[C@H]3COc4ccccc4N(C)C3=O)n[nH]c2CO1` (stereo partly drawn) [Example 194, 5-ethyl-5-methyl-N-((S)-5-methyl-4-oxo-2,3,4,5-tetrahydrobenzo[b][1,4]oxazepin-3-yl)-1,4,5,7-tetrahydropyrano[3,4-c]pyrazole-3-carboxamide], the pKi is 6.78.
